Data as given in publication PMC11984392, “EphA2-targeted alpha-particle theranostics for enhancing PDAC treatment” (Theranostics, 2025).
*1 amine or outer side, *2 acyl side, *3 side chain or, on linkers, in order; H or OH if unused. Where a SMILES comes first, the peptide text is derived from it. Bridges are numbered along the chain shown (N, C = ends). [ ]: non-standard residue; d: D form. The star is where a group is joined. TATA = O=C(CC[*:1])N1CN(C(=O)CC[*:2])CN(C(=O)CC[*:3])C1; NOTA = O=C(O)CN1CCN(CC(=O)O)CCN(CC(=O)*)CC1; Hyp = O=C(O)[C@@H]1C[C@@H](O)CN1; hArg = N=C(N)NCCCC[C@H](N)C(=O)O; PEG2 = NCCOCCOCCC(=O)O; Sar = CNCC(=O)O

Assay: Human radiation dosimetry estimates (MIRDCalc)
From the text: Pharmacokinetic data obtained from biodistribution studies of Panc1 tumor-bearing mice were utilized to predict the time-integrated activity coefficients (TIACs, formerly known as residence times) of [^68Ga]AJ201 in humans, as previously described [28]-[30]. These TIAC estimates were then input into MIRDCalc to determine the absorbed dose coefficients for organs from ^68Ga using the ICRP adult female reference phantom (Table S4).

[1] = absorbed dose coefficient, MIRDCalc, ICRP adult female reference phantom
[2] = absorbed dose coefficient, MIRDCalc, ICRP adult female reference phantom, listed as [68Ga]AJ201
[3] = predicted for humans from Panc1 mouse biodistribution

For `CC(C)C[C@@H]1NC(=O)[C@@H]2CSCCC(=O)N3CN(CN(C3)C(=O)CCSC[C@H](NC(=O)[C@H](CC(=O)O)NC(=O)[C@H](CCCCNC(=N)N)NC(=O)[C@H](C)NC(=O)CNC(=O)CN(C)C(=O)CN(C)C(=O)CN(C)C(=O)[C@H](CCCNC(=N)N)NC(=O)CNC(=O)CCOCCOCCNC(=O)CN3CCN(CC(=O)O)CCN(CC(=O)O)CC3)C(=O)N3C[C@H](O)C[C@H]3C(=O)N[C@@H](CC(C)C)C(=O)N[C@@H](C(C)C)C(=O)N[C@@H](CC(N)=O)C(=O)N3CCC[C@H]3C(=O)N[C@@H](CC(C)C)C(=O)N2)C(=O)CCSC[C@@H](C(N)=O)NC(=O)[C@H](CCCCNC(=N)N)NC(=O)[C@H](Cc2c[nH]c3ccccc23)NC(=O)[C@@H](CC(=O)O)NC(=O)[C@@H]2CCCN2C(=O)[C@H](Cc2c[nH]cn2)NC1=O` [[^68Ga]AJ201, metal not drawn] ({NOTA-PEG2}-GR[Sar][Sar][Sar]GA[hArg]DC[Hyp]LVNPLCLHP[dD]W[hArg]C-NH2; linker 10-17-24 via TATA), the “Organ dose, Adrenals” value [1] was 0.06 rem/mCi, the “Organ dose, Bladder” value [1] was 0.15 rem/mCi and the “Organ dose, Brain” value [1] was 0.003215 rem/mCi. For the same molecule, the “Organ dose, Femur” value [1] was 0.01421 rem/mCi, the “Organ dose, Heart” value [1] was 0.03275 rem/mCi and the “Organ dose, Kidney” value [1] was 0.38 rem/mCi. The “Organ dose, Large Intestine” value [1] was 0.01839 rem/mCi, the “Organ dose, Liver” value [1] was 0.02398 rem/mCi and the “Organ dose, Lung” value [1] was 0.04 rem/mCi. For the same molecule, the “Organ dose, Muscle” value [1] was 0.00962 rem/mCi, the “Organ dose, Pancreas” value [1] was 0.02708 rem/mCi and the “Organ dose, Small intestine” value [1] was 0.01639 rem/mCi. The “Organ dose, Spleen” value [1] was 0.03644 rem/mCi, the “Organ dose, Stomach with contents” value [1] was 0.0158 rem/mCi and the “Organ dose, Thymus” value [1] was 0.02016 rem/mCi. For the same molecule, the “Organ dose, Adrenals” value [2] was 0.06253 rem/mCi, the “Organ dose, Bladder” value [2] was 0.1513 rem/mCi and the “Organ dose, Kidney” value [2] was 0.3885 rem/mCi. For the same molecule, the “Organ dose, Lung” value [2] was 0.04292 rem/mCi, the “Estimated effective dose equivalent” value (at 13 mCi dose, human estimate) was “less than 5 rem” and the “Dose that can be safely administered for PET imaging” value (human estimate) was 13 mCi. For the same molecule, the “Residence time (TIAC), Adrenals” value [3] was 0.0002761 h, the “Residence time (TIAC), Bladder” value [3] was 0.006394 h and the “Residence time (TIAC), Blood” value [3] was 0.05152 h. For the same molecule, the “Residence time (TIAC), Brain” value [3] was 0.0008446 h, the “Residence time (TIAC), Femur” value [3] was 0.005607 h and the “Residence time (TIAC), Heart” value [3] was 0.001764 h. The “Residence time (TIAC), Kidney” value [3] was 0.08395 h, the “Residence time (TIAC), Large Intestine” value [3] was 0.001341 h and the “Residence time (TIAC), Liver” value [3] was 0.01723 h. For the same molecule, the “Residence time (TIAC), Lung” value [3] was 0.01099 h, the “Residence time (TIAC), Muscle” value [3] was 0.07064 h and the “Residence time (TIAC), Pancreas” value [3] was 0.0006321 h. For the same molecule, the “Residence time (TIAC), Small intestine” value [3] was 0.003647 h, the “Residence time (TIAC), Spleen” value [3] was 0.002451 h and the “Residence time (TIAC), Stomach with contents” value [3] was 0.0004823 h. The “Residence time (TIAC), Thymus” value [3] was 0.0002384 h.
